From PubChem BioAssay (NCI)
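Tested at 5 concentrations; 48 h exposure; 96-well plates; endpoints linearly interpolated, else capped at highest concentration. At the GI50, growth is halved. TGI marks complete inhibition of growth.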

Legend:
Test in all cases: NCI tumour cell line growth inhibition, 48 h
[1] = test system: OVCAR-4 ovarian
[2] = test system: SF-268 CNS
[3] = test system: SN12C renal
[4] = test system: ACHN renal
[5] = test system: MDA-MB-435
[6] = test system: T-47D breast
[7] = test system: MCF7 breast
[8] = test system: PC-3 prostate
[9] = test system: HCC-2998 colon
[10] = test system: SK-MEL-28 melanoma
[11] = test system: SK-MEL-5 melanoma
[12] = test system: UACC-257 melanoma
[13] = test system: NCI-H522 lung
[14] = test system: TK-10 renal
[15] = test system: DU-145 prostate
[16] = test system: SF-539 CNS
[17] = test system: HOP-62 NSCLC
[18] = test system: SW-620 colon
[19] = test system: SNB-75 CNS
[20] = test system: KM12 colon
[21] = test system: HL-60(TB) leukemia
[22] = test system: SF-295 CNS
[23] = test system: EKVX NSCLC
[24] = test system: RXF 393 renal
[25] = test system: NCI/ADR-RES ovarian
[26] = test system: IGROV1 ovarian
[27] = test system: HCT-15 colon
[28] = test system: HCT-116 colon
[29] = test system: MOLT-4 leukemia
[30] = test system: A549 NSCLC
[31] = test system: UO-31 renal
[32] = test system: OVCAR-5 ovarian
[33] = test system: NCI-H460 lung
[34] = test system: NCI-H226 lung
[35] = test system: A498 renal
[36] = test system: COLO 205 colon
[37] = test system: OVCAR-8 ovarian
[38] = test system: SNB-19 CNS
[39] = test system: HT29 colon
[40] = test system: SR leukemia
[41] = test system: U251 CNS
[42] = test system: M14 melanoma
[43] = test system: CAKI-1 renal
[44] = test system: LOX IMVI melanoma
[45] = test system: SK-MEL-2 melanoma
[46] = test system: RPMI-8226 leukemia
[47] = test system: K-562 leukemia
[48] = test system: HOP-92 NSCLC
[49] = test system: MALME-3M melanoma
[50] = test system: UACC-62 melanoma
[51] = test system: CCRF-CEM leukemia
[52] = test system: NCI-H23 lung
[53] = test system: MDA-MB-231 breast
[54] = test system: HS 578T breast
[55] = test system: OVCAR-3 ovarian
[56] = test system: 786-0 renal
[57] = test system: BT-549 breast
[58] = test system: SK-OV-3 ovarian

With `COc1cccc(-c2nc3sccn3c2-c2ccnc(NCCNC(=O)Nc3cccc(C(F)(F)F)c3)n2)c1` the GI50 [1] was 3.78 µM, the TGI [1] was 34.1 µM and the GI50 [2] was 4.59 µM. It also gave a TGI [2] of 43.4 µM, a GI50 [3] of 4.03 µM and a TGI [3] of 26.5 µM. For the same compound, the GI50 [4] was 3.17 µM, the TGI [4] was 19.1 µM and the GI50 [5] was 2.95 µM. It also gave a TGI [5] of 12.3 µM, a GI50 [6] of 3.77 µM and a TGI [6] of 13.8 µM. It also gave a GI50 [7] of 3.12 µM, a TGI [7] of 13.3 µM and a GI50 [8] of 2.48 µM. For the same compound, the TGI [8] was 11.9 µM, the GI50 [9] was 3.75 µM and the TGI [9] was 18.7 µM. For the same compound, the GI50 [10] was 5.36 µM, the TGI [10] was 26.2 µM and the GI50 [11] was 4.27 µM. The TGI [11] was 15.9 µM, the GI50 [12] was 4.34 µM and the TGI [12] was 16.5 µM. For the same compound, the GI50 [13] was 2.67 µM, the TGI [13] was 8.51 µM and the GI50 [14] was 3.6 µM. It also gave a TGI [14] of 18.8 µM, a GI50 [15] of 5.13 µM and a TGI [15] of 95.5 µM. It also gave a GI50 [16] of 3.83 µM, a TGI [16] of 17.1 µM and a GI50 [17] of 6.71 µM. The TGI [17] was 42.4 µM, the GI50 [18] was 4.47 µM and the TGI [18] was 91.5 µM. It also gave a GI50 [19] of 3.41 µM, a TGI [19] of 21.7 µM and a GI50 [20] of 3.36 µM. The TGI [20] was 10.1 µM, the GI50 [21] was 2.92 µM and the TGI [21] was 7.43 µM. For the same compound, the GI50 [22] was 2.8 µM, the TGI [22] was 14.9 µM and the GI50 [23] was 3.55 µM. The TGI [23] was 59.6 µM, the GI50 [24] was 1.78 µM and the TGI [24] was 3.65 µM. For the same compound, the GI50 [25] was 3.45 µM, the TGI [25] was > 100 µM and the GI50 [26] was 3.32 µM. The TGI [26] was 21.8 µM, the GI50 [27] was 3.05 µM and the TGI [27] was 16.4 µM. The GI50 [28] was 3.45 µM, the TGI [28] was 11.6 µM and the GI50 [29] was 3.27 µM. It also gave a TGI [29] of 9.94 µM, a GI50 [30] of 3.82 µM and a TGI [30] of 17.1 µM. The GI50 [31] was 2.88 µM, the TGI [31] was 24.8 µM and the GI50 [32] was 6.37 µM. The TGI [32] was 52.2 µM, the GI50 [33] was 2.94 µM and the TGI [33] was 14.4 µM. It also gave a GI50 [34] of 4.58 µM, a TGI [34] of 68.6 µM and a GI50 [35] of 2.44 µM. It also gave a TGI [35] of 17.5 µM, a GI50 [36] of 5.37 µM and a TGI [36] of 19.2 µM. For the same compound, the GI50 [37] was 3.28 µM, the TGI [37] was 9.79 µM and the GI50 [38] was 7.77 µM. The TGI [38] was > 100 µM, the GI50 [39] was 3.33 µM and the TGI [39] was 14 µM. For the same compound, the GI50 [40] was 3.75 µM, the TGI [40] was 29.7 µM and the GI50 [41] was 3.95 µM. It also gave a TGI [41] of 19.8 µM, a GI50 [42] of 2.96 µM and a TGI [42] of 8.48 µM. For the same compound, the GI50 [43] was 3.5 µM, the TGI [43] was 10.3 µM and the GI50 [44] was 4.11 µM. The TGI [44] was > 100 µM, the GI50 [45] was 2.03 µM and the TGI [45] was 4.46 µM. The GI50 [46] was 1.92 µM, the TGI [46] was 5.11 µM and the GI50 [47] was 3.48 µM. The TGI [47] was > 100 µM, the GI50 [48] was 0.853 µM and the TGI [48] was 9.47 µM. It also gave a GI50 [49] of 3.86 µM, a TGI [49] of 26.8 µM and a GI50 [50] of 2.55 µM. The TGI [50] was 7.48 µM, the GI50 [51] was 3.43 µM and the TGI [51] was > 100 µM. It also gave a GI50 [52] of 3.42 µM, a TGI [52] of 76.9 µM and a GI50 [53] of 3.47 µM. It also gave a TGI [53] of 12 µM, a GI50 [54] of 3.15 µM and a TGI [54] of 29 µM. For the same compound, the GI50 [55] was 4.22 µM and the TGI [55] was 20.3 µM.
With `CN(C)c1ccc(/C=C2\Oc3cc(O)ccc3C2=O)cc1` the TGI [1] was > 100 µM, the TGI [2] was > 100 µM and the TGI [56] was > 100 µM. For the same compound, the TGI [3] was > 100 µM, the TGI [57] was > 100 µM and the TGI [4] was > 100 µM. For the same compound, the TGI [5] was > 100 µM, the TGI [6] was > 100 µM and the TGI [7] was > 100 µM. The TGI [8] was > 100 µM, the TGI [9] was > 100 µM and the TGI [10] was > 100 µM. The TGI [11] was > 100 µM, the TGI [12] was > 100 µM and the TGI [13] was > 100 µM. For the same compound, the TGI [14] was > 100 µM, the TGI [15] was > 100 µM and the TGI [16] was > 100 µM. The TGI [17] was > 100 µM, the TGI [18] was > 100 µM and the TGI [19] was > 100 µM. For the same compound, the TGI [20] was > 100 µM, the TGI [21] was > 100 µM and the TGI [22] was > 100 µM. The TGI [23] was > 100 µM, the TGI [24] was > 100 µM and the TGI [25] was > 100 µM. The TGI [26] was > 100 µM, the TGI [27] was > 100 µM and the TGI [28] was > 100 µM. The TGI [29] was > 100 µM, the TGI [30] was > 100 µM and the TGI [31] was > 100 µM. For the same compound, the TGI [33] was > 100 µM, the TGI [34] was > 100 µM and the TGI [58] was > 100 µM. The TGI [36] was > 100 µM, the TGI [37] was > 100 µM and the TGI [38] was > 100 µM. The TGI [40] was > 100 µM, the TGI [41] was > 100 µM and the TGI [42] was > 100 µM. For the same compound, the TGI [43] was > 100 µM, the TGI [46] was > 100 µM and the TGI [47] was > 100 µM. The TGI [50] was > 100 µM, the TGI [51] was > 100 µM and the TGI [52] was > 100 µM. The TGI [53] was > 100 µM, the TGI [54] was > 100 µM and the TGI [55] was > 100 µM.
